Assay results: patent publication US9340577B2, “HLA binding motifs and peptides and their uses” (priority 1992, dated 2016)
pIC50: −log10 of the molar value. No end group written: not given here.

What was measured:
Experiment in all cases: biochemical
Assay type in all cases: binding
HLA-A3.2 (A*0301) = HLA-A3.2 (A*0301) (Homo sapiens, UniProt P04439)
HLA-A11 (A*1101) = HLA-A11 (A*1101) (Homo sapiens, UniProt P04439, A114D/D185E/E176A/F33Y/L180Q/S129P/T187R)
A31 (A*3101) = A31 (A*3101) (Homo sapiens, UniProt P04439, A270S/D185E/E176V/E277Q/F33T/G231S/G80R/H175R/I121M/I218V/I322F/K168Q/L300P/L318F/M331R/P217A/Q94H/R138Q/T323A/T345S/T97I/V358M)
A*3301 = A*3301 (Homo sapiens, UniProt P04439, A270S/D185E/E176V/E277Q/E87N/F33T/G231S/H175R/I121M/I218V/I322F/K168Q/K210R/L300P/L318F/M331R/P217A/Q86R/Q94H/R138Q/T323A/T345S/T97I/V358M/Y195H)
A*6801 = A*6801 (Homo sapiens, UniProt P04439, A269V/D185E/E176V/E277Q/E87N/F33Y/G231S/I121M/I166T/I218V/L180W/L300P/L318F/N151K/P208A/P217A/Q86R/R169H/T345S)

Sequence	pIC50 (HLA-A3.2 (A*0301))	pIC50 (HLA-A11 (A*1101))	pIC50 (A31 (A*3101))	pIC50 (A*3301)	pIC50 (A*6801)
RVLQGLPREK [Peptide 9012.0238]	7.42	7.46	7.06	< 4.70	4.84
MALESILRK [Peptide 9012.0214]	6.67	7.89	< 4.70	5.26	6.36
ATNKMFCQLAK [Peptide 1556.47]	7.54	8.14	6.80	< 4.70	5.79
LLRAVRIIK [Peptide 9017.0069]	7.16	5.69	5.58	< 4.70	< 4.70
TVNEYNTHK [Peptide 1589.36]	7.08	7.70	5.39	5.56	7.31
MLVRFKCAK [Peptide 1587.30]	6.82	6.73	7.07	6.01	6.06
NSNASAFLK [Peptide 1587.07]	6.37	7.89	5.47	6.57	7.57
AVMCRHYKR [Peptide 1587.53]	6.67	7.51	7.85	7.23	7.60
HLYGYSWYK [Peptide 76.0153]	7.92	7.96	7.32	7.21	7.80
NSNAAAFLR [Peptide 88.0387]	< 4.70	6.67	6.80	7.30	7.70
NSNAAAFLK [Peptide 88.0342]	6.02	7.72	5.58	6.18	7.66
GTFKCSAGK [Peptide 88.0373]	7.64	7.85	6.21	4.74	7.09
GSQPKTACNK [Peptide 9017.0202]	6.33	7.52	5.83	< 4.70	4.80
KIDWLIKRIR [Peptide 9017.0248]	5.06	5.06	7.72	5.17	< 4.70
YGFRLGFLK [Peptide 1556.27]	7.39	9.00	6.65	6.08	7.80
TIAYIEYRK [Peptide 9017.0119]	6.04	7.62	5.48	6.05	8.11
TQQMLQVEGR [Peptide 88.0128]	< 4.70	5.52	6.45	5.73	6.13
ISYGRKKRRQK [Peptide 73.0314]	7.32	5.55	5.50	< 4.70	5.35
TLYAEPPK [Peptide 1556.12]	6.13	6.57	< 4.70	< 4.70	5.70
LQGKLYYKFK [Peptide 88.0184]	6.14	6.89	5.43	4.79	< 4.70
MQYVAWKYIY [Peptide 88.0233]	5.72	7.28	< 4.70	< 4.70	4.92
LSALKLFLK [Peptide 1587.39]	6.02	7.51	7.02	5.74	5.66
QQMFLGTVK [Peptide 88.0415]	5.69	7.66	5.14	< 4.70	5.80
STVSVGTAK [Peptide 1589.09]	7.47	8.22	5.75	4.79	8.00
ATLESITKK [Peptide 78.0300]	7.25	7.74	5.50	< 4.70	5.71
KVSPIVHLK [Peptide 1589.42]	7.68	7.52	8.22	< 4.70	7.60
KLGIVTITY [Peptide 88.0428]	7.19	5.47	< 4.70	< 4.70	< 4.70
SQWIKYRCDR [Peptide 88.0136]	4.72	4.96	6.38	5.57	< 4.70

Sequence	pIC50 (HLA-A3.2 (A*0301))	pIC50 (HLA-A11 (A*1101))	pIC50 (A31 (A*3101))	pIC50 (A*3301)	pIC50 (A*6801)
KTTPVVHLK [Peptide 1589.37]	7.55	7.66	7.55	< 4.70	7.48
WLIKRIRER [Peptide 9017.0122]	5.29	< 4.70	7.07	7.70	7.30
MTDAGTWDK [Peptide 88.0400]	5.80	7.92	< 4.70	< 4.70	7.55
AILGHIVIPR [Peptide 9017.0224]	7.51	7.32	8.70	6.99	7.38
ISYGRKKRR [Peptide 9017.0079]	5.03	< 4.70	7.44	5.95	5.87
ILYQSNPYPK [Peptide 9017.0198]	8.06	7.85	6.26	4.96	7.43
KTTVLFKFK [Peptide 88.0369]	7.51	7.70	7.44	5.86	6.06
VTVKVGGQLR [Peptide 1516.06]	5.05	6.70	6.30	4.90	7.02
FLSQVKIPK [Peptide 1589.05]	7.07	7.66	7.14	6.80	7.32
MTYVAWDSVY [Peptide 1589.07]	6.21	6.05	4.71	< 4.70	7.14
FADLTVVYR [Peptide 78.0318]	4.72	5.04	5.75	6.51	7.41
KLFGYSWYK [Peptide 76.0146]	7.96	8.14	8.14	5.43	7.80
VVVKSPNHVK [Peptide 9012.0255]	6.59	7.06	5.11	< 4.70	6.49
QQLLFIHFR [Peptide 9017.0111]	5.75	8.32	8.70	7.39	7.77
VIDSPAGQA [Peptide 78.0316]	4.88	5.03	6.39	6.04	6.01
GVLILALLR [Peptide 88.0338]	5.54	7.25	5.64	5.41	6.03
RINTWKSLVK [Peptide 9017.0215]	7.92	8.00	6.20	< 4.70	4.94
AFRDLCIVYR [Peptide 78.0079]	5.51	5.36	7.89	7.39	6.22
FIHFRIGCR [Peptide 9017.0112]	6.00	5.15	7.21	7.89	7.17
LVYRDDFPY [Peptide 1581.04]	5.13	7.24	< 4.70	< 4.70	4.95
VTVYYGVPVWR [Peptide 1525.01]	6.25	7.66	7.72	6.29	7.54
TALIKPKKR [Peptide 9017.0102]	< 4.70	5.56	5.76	6.11	6.53
HLFWYSWYK [Peptide 76.0168]	8.19	8.28	7.55	7.41	8.47
QVVPAYNISK [Peptide 1589.06]	6.49	7.82	5.18	< 4.70	8.12
LLYGPANTGK [Peptide 1587.56]	7.85	8.06	5.20	4.84	7.36
SSCMGGMNR [Peptide 1556.59]	6.69	7.80	7.27	7.41	6.96
TLWNPPTTAK [Peptide 1556.04]	7.66	6.97	5.17	5.65	6.36
